{
  "source": "paper PMC11073428",
  "about": "“The activity of pyrazolo[4,3-e][1,2,4]triazine and pyrazolo[4,3-e]tetrazolo[1,5-b][1,2,4]triazine sulphonamide derivatives in monolayer and spheroid breast cancer cell cultures” (Journal of Enzyme Inhibition and Medicinal Chemistry, 2024)",
  "key": {"[1]": {"tested_on": "MDA-MB-231 breast cancer cells", "experiment": "Apoptosis, annexin V-FITC/PI flow cytometry, MDA-MB-231", "assay_type": "cell-based, human", "conditions": "24 h; for early and late apoptotic cells: MDA-MB-231, 0.5 µM", "procedure": "(§1) The analysis was performed using flow cytometry Apoptosis Detection Kit II (BD Biosciences, San Diego, CA) as described previously."}, "Bax in MDA-MB-231 cells": {"tested_on": "Bax in MDA-MB-231 cells", "experiment": "Anti-Bax antibody flow cytometry, MDA-MB-231", "assay_type": "cell-based, human", "conditions": "MDA-MB-231, 24 h", "procedure": "(§2) To evaluate the molecular mechanism of induction of apoptosis of tested compounds, the level of p53, NF-κB, mTOR, Bax, and beclin-1 was measured using appropriate antibody according to the manufacturer’s instruction. In brief, tryspinised cells were centrifuged, then supernatant was discarded, and cells were suspended in 4% FA (formaldehyde). Prepared samples were incubated 15 min at RT. Following incubation, the 2.5 mL PBS was added to each sample and centrifuged. Then, supernatant was discarded, and cells were resuspended in 90% ice-cold methanol to perform permeabilisation and left for 1 h in ice. To remove methanol, cells were rinsed with excess PBS by centrifugation. Following centrifugation, the supernatant was discarded. Then, cells were resuspended in 100 µL of appropriate diluted (1:100 in PBS) antibody conjugate (p53 (7F5) Rabbit mAb – Alexa Fluor 488 Conjugate #5429 Cell Signalling Technology, Danvers, MA; NF-κB p65 (D14E12) XP Rabbit mAb – Alexa Fluor 647 Conjugate #8801 Cell Signalling Technology, Danvers, MA; mTOR (7C10) Rabbit mAB – Alexa Fluor 647 #5048 Cell Signalling Technology, Danvers, MA; FITC Anti-Bax antibody (T22-A) #ab139543, Abcam, Cambridge, UK) and incubated 1 h in the dark at RT. Afterwards, cells were washed by centrifugation in 2 mL of incubation buffer. Finally, supernatant was removed and 300 µL PBS was added to each sample and pipetted. The analysis was performed by flow cytometry (BD FACSCanto II, Becton Dickinson Biosciences Systems, San Jose, CA) using FACSDiva software ver. 6.1.3."}, "Bax in MCF-7 cells": {"tested_on": "Bax in MCF-7 cells", "experiment": "Anti-Bax antibody flow cytometry, MCF-7", "assay_type": "cell-based, human", "conditions": "MCF-7, 24 h", "procedure": "as §2"}, "[2]": {"tested_on": "MCF-7 breast cancer cells", "experiment": "Apoptosis, annexin V-FITC/PI flow cytometry, MCF-7", "assay_type": "cell-based, human", "conditions": "24 h; for early and late apoptotic cells: MCF-7, 0.5 µM", "procedure": "as §1"}, "[3]": {"tested_on": "beclin-1 in MDA-MB-231 cells", "experiment": "Anti-beclin-1 antibody flow cytometry, MDA-MB-231", "assay_type": "cell-based, human", "conditions": "MDA-MB-231, 0.5 µM, 24 h", "procedure": "(§3) The fixation and permeabilisation were performed as described above. Cells were resuspended in 100 µL of diluted primary antibody (1:100 in PBS, anti-beclin 1 antibody (2A4) #ab114071, Abcam, Cambridge, UK) and incubated 30 min in the dark at RT. The cells were washed three times by centrifugation in PBS. Then to each probe, 100 µL of diluted fluorochrome-labelled secondary antibody (1:100 in PBS; goat anti-mouse IgG H&L – Alexa Fluor 488 #ab150113, Abcam, Cambridge, UK) was added and incubated 30 min in dark at RT. Then, cells were rinsed with 2.5 mL PBS. In the last step, supernatant was discarded and cells were resuspended in 300 µL PBS and pipetted. The analysis was carried out by flow cytometry."}, "beclin-1 in MCF-7 cells": {"tested_on": "beclin-1 in MCF-7 cells", "experiment": "Anti-beclin-1 antibody flow cytometry, MCF-7", "assay_type": "cell-based, human", "conditions": "MCF-7, 0.5 µM, 24 h", "procedure": "as §3"}, "[4]": {"tested_on": "MCF-10A normal breast cells", "set-up": "method as in PMID 32575817", "conditions": "24 h incubation; read-out: IC50 in MCF-10A (previous studies); cited from earlier work"}, "[5]": {"tested_on": "MDA-MB-231 breast cancer cells", "set-up": "method as in PMID 27488500", "conditions": "24 h incubation; read-out: IC50 in MDA-MB-231 (previous studies); cited from earlier work"}, "[6]": {"tested_on": "MCF-7 breast cancer cells", "set-up": "method as in PMID 27488500", "conditions": "24 h incubation; read-out: IC50 in MCF-7 (previous studies); cited from earlier work"}, "MCF-7 spheroids": {"tested_on": "MCF-7 spheroids", "experiment": "3D spheroid culture, MCF-7", "assay_type": "cell-based, human", "conditions": "0.25 µM and 0.5 µM", "procedure": "(§4) The 3D cell culture was carried out with 6-Well Bio-Assembler Kit in accordance with the manufacturer’s instructions (Greiner Bio-One GmbH, Frickenhausen, Germany). First, MCF-7 and MDA-MB-231 were cultured in 2D using procedure and supplied to 80% confluency and treated with nanoshuttle at concentration of 1 µL/10 000 cell and incubated overnight. Following incubation, the medium was removed, and the cells were detached by trypsin–EDTA solution and resuspended in DMEM. The cells were counted using Scepter 2.0 Handheld Automated Cell Counter (Merck, Darmstadt, Germany) and plated at the concentration 1 × 10^6 cells per well in six-well plate. Then, cells were gently tilted in the flask to evenly distribute the nanoparticle and incubated (37 °C, 5% CO2, 95–98% humidity) for 1 h with magnet on the top of the plate. The cells self-assemble to spheroids. The obtained 3D cell culture was incubated until analysis.\n(§5) The visualisation of the morphological changes in 3D cell culture of MCF-7 and MDA-MB-231 was evaluated using microscope (Nikon Eclipse Ti, Tokyo, Japan).\n(§6) The mean ± standard deviation (SD) for all data is presented. One-way and two-way analysis of variance (ANOVA) was conducted followed by Dunnett’s test. GraphPad 8.0.1 Prism software (GraphPad Software, San Diego, CA) was used for calculation. The analysis of spheroids area was carried out using ImageJ software from the NIH (Bethesda, MD)."}, "MDA-MB-231 spheroids": {"tested_on": "MDA-MB-231 spheroids", "experiment": "3D spheroid culture, MDA-MB-231", "assay_type": "cell-based, human", "conditions": "0.25 µM and 0.5 µM", "procedure": "as §4, §5, §6"}, "[7]": {"tested_on": "MDA-MB-231 breast cancer cells", "experiment": "MTT viability assay, MDA-MB-231", "conditions": "for IC50: Homo sapiens, MDA-MB-231, 24 h, read-out: Cytotoxicity IC50 MDA-MB-231", "experimental": "(§7) Following 24-h incubation with tested compounds, the medium was discarded from the cell cultures. Then, into each well with cells was added 1 mL of PBS and 50 µL of MTT solution (5 mg per mL). Cells were incubated at 37 °C and 5% CO2 in humidified atmosphere for a defined time appropriate for each cell line. After incubation, the solution above the cells was removed and obtained purple formazan crystals were dissolved in 1 mL DMSO. The absorbance was read at OD = 570 nm on Evolution 201 Spectrophotometer (Thermo Scientific, Waltham, MA)."}, "in vitro": {"experiment": "in vitro", "conditions": "human"}, "[8]": {"tested_on": "MCF-7 breast cancer cells", "experiment": "MTT viability assay, MCF-7", "conditions": "for IC50: Homo sapiens, MCF7, 24 h, read-out: Cytotoxicity IC50 MCF-7", "experimental": "as §7"}, "[9]": {"conditions": "ratio of cytotoxicity, 3a vs 2a, 3b vs 2b"}},
  "note": "Where two headings read alike, the source gives them in different places.",
  "data": [
    {"smiles": "N.N.[Cl][Pt][Cl]", "note": "[Cisplatin, cisplatin, reference compound]", "values": [
      {"measurement": "early and late apoptotic cells", "setting": "[1]", "value": "7.6 ± 0.6", "unit": "%"},
      {"measurement": "number of cells with active Bax (in words)", "setting": "Bax in MDA-MB-231 cells", "value": "at the control level"},
      {"measurement": "number of cells with active Bax (in words)", "setting": "Bax in MCF-7 cells", "value": "at the control level"},
      {"measurement": "early and late apoptotic cells", "setting": "[2]", "value": "7.1 ± 0.9", "unit": "%"},
      {"measurement": "cells with active beclin-1", "setting": "[3]", "value": "3.6 ± 0.7", "unit": "%"},
      {"measurement": "cells with active beclin-1", "setting": "beclin-1 in MCF-7 cells", "value": "4.1 ± 0.5", "unit": "%"},
      {"measurement": "IC50", "setting": "[4]", "value": "> 100", "unit": "µM"},
      {"measurement": "IC50", "setting": "[5]", "value": 82, "unit": "µM"},
      {"measurement": "IC50", "setting": "[6]", "value": 93, "unit": "µM"},
      {"measurement": "effect on spheroid formation (in words)", "setting": "MCF-7 spheroids", "value": "slightly affected growth of spheroids"},
      {"measurement": "effect on spheroid formation (in words)", "setting": "MDA-MB-231 spheroids", "value": "slightly affected growth of spheroids"}
    ]},
    {"smiles": "Cc1nn(-c2ccc(S(=O)(=O)N[C@H](CO)Cc3ccccc3)cc2)c2nnc(S(C)(=O)=O)nc12", "note": "[Compound 2a, (S)-N-(1-Hydroxy-3-phenylpropan-2-yl)-4-(3-methyl-5-(methylsulfonyl)-1H-pyrazolo[4,3-e][1,2,4]triazin-1-yl)benzenesulfonamide]", "values": [
      {"measurement": "melting point", "value": "130 to 134", "unit": "°C"},
      {"measurement": "IC50", "setting": "[7]", "value": "9.2 ± 0.78", "unit": "µM"},
      {"measurement": "IC50 at 24 h", "setting": "in vitro", "value": "> 10", "unit": "µM"},
      {"measurement": "IC50", "setting": "[8]", "value": "6 ± 0.38", "unit": "µM"}
    ]},
    {"smiles": "Cc1nn(-c2ccc(S(=O)(=O)N[C@@H](CO)Cc3ccccc3)cc2)c2nnc(S(C)(=O)=O)nc12", "note": "[Compound 2b, (R)-N-(1-Hydroxy-3-phenylpropan-2-yl)-4-(3-methyl-5-(methylsulfonyl)-1H-pyrazolo[4,3-e][1,2,4]triazin-1-yl)benzenesulfonamide]", "values": [
      {"measurement": "melting point", "value": "124 to 128", "unit": "°C"},
      {"measurement": "apoptotic cells", "setting": "[1]; MDA-MB-231, 0.25 µM", "value": "5.7 ± 0.6", "unit": "%"},
      {"measurement": "early and late apoptotic cells", "setting": "[1]", "value": "5.8 ± 1.8", "unit": "%"},
      {"measurement": "IC50", "setting": "[7]", "value": "7.8 ± 0.53", "unit": "µM"},
      {"measurement": "apoptotic cells", "setting": "[2]; MCF-7, 0.25 µM", "value": "9.8 ± 1.2", "unit": "%"},
      {"measurement": "early and late apoptotic cells", "setting": "[2]", "value": "14.6 ± 1.7", "unit": "%"},
      {"measurement": "IC50 at 24 h", "setting": "in vitro", "value": "> 10", "unit": "µM"},
      {"measurement": "IC50", "setting": "[8]", "value": "5.5 ± 0.39", "unit": "µM"},
      {"measurement": "effect on spheroid formation (in words)", "setting": "MCF-7 spheroids", "value": "slower formation of spheroids compared to untreated cells"},
      {"measurement": "effect on spheroid formation (in words)", "setting": "MDA-MB-231 spheroids", "value": "slower formation of spheroids compared to untreated cells"}
    ]},
    {"smiles": "Cc1nn(-c2ccc(S(=O)(=O)N[C@H](CO)Cc3ccccc3)cc2)c2nn3nnnc3nc12", "note": "[Compound 3a, (S)-N-(1-Hydroxy-3-phenylpropan-2-yl)-4-(7-methyl-5H-pyrazolo[4,3-e]tetrazolo[1,5-b][1,2,4]triazin-6-yl)benzenesulfonamide]", "values": [
      {"measurement": "melting point", "value": "172 to 176", "unit": "°C"},
      {"measurement": "IC50", "setting": "[7]", "value": "0.71 ± 0.14", "unit": "µM"},
      {"measurement": "times stronger than the corresponding sulphonyl derivative (2a or 2b), MDA-MB-231", "setting": "[7]; [9]", "value": "~13", "unit": "times"},
      {"measurement": "IC50 at 24 h", "setting": "in vitro", "value": "3.5 ± 0.18", "unit": "µM"},
      {"measurement": "IC50", "setting": "[8]", "value": "0.35 ± 0.08", "unit": "µM"},
      {"measurement": "times stronger than the corresponding sulphonyl derivative (2a or 2b), MCF-7", "setting": "[8]; [9]", "value": 17, "unit": "times"}
    ]}
  ]
}
